# Experimental data reported in patent publication US20250064773A1, “TARGETING ERO1 ALPHA WITH AURONE DERIVATIVES” (West Virginia University Board of Governors on behalf of …, priority 2021, published 2025).
# System: MM1.s
# Assay: MTT viability assay, MM1.s
# Type: cell-based
# Settings: Homo sapiens, Multiple Myeloma, read-out: IC50 Avg ± s.d. (n = 3), MM1.s
# Source text: Cell Lines: PC-9 cell line used was obtained from Sigma Aldrich and grown in RPMI 1640 medium with 10% fetal bovine serum and 1% penicillin/streptomycin. HCC4006, U266, MM1.s, and Beas-2B cell lines were obtained from ATCC and cultured in either RPMI 1640 or DMEM with 10% fetal bovine serum and 1% penicillin/streptomycin. All cell lines were also checked for mycoplasma every six months and subjected to short tandem repeat (STR) analysis for cell line validation. CRISPR Cas9: CRISPR Guide RNA 2 targeting ERO1α and CRISPR Guide RNA 4 were purchased from Genscript in the pLentiCRISPR V2 plasmid containing puromycin/ampicillin selection marker. Lentivirus was made from HEK 293T cells by co-transfection with GuideRNA of interest, pVSVG, and pPAX2 plasmids. […] Plate was then read on the BioTek Cytation 5 at 530/590 nm. […] Plate was then read at 570 nm. Treated wells were all compared to DMSO control wells to calculate percent growth inhibition and the IC50 was calculated using GraphPad (log(inhibitor) vs growth inhibition). […] Images were then quantified using ImageJ. […] Cells were aliquoted at 1 million cells per PCR tube in PBS and heated in Bio-Rad T100 thermal cycler at indicated temperatures (RT, 46° C., 48° C., 50° C., 52° C., 54° C., 56°, 58° C., and 60° C.) for 3 minutes and aggregation temperature was determined by western blot analysis. […]
smiles,measurement,value
CN(C)c1ccc(/C=C2\Oc3cc(O)ccc3C2=O)cc1 [Compound T151742],IC50,7.45 ± 1.12 µM
